Article PMC4498294, “Tetrahydroisoquinolines affect the whole-cell phenotype of Mycobacterium tuberculosis by inhibiting the ATP-dependent MurE ligase” (Journal of Antimicrobial Chemotherapy, 2015)
Values after ≈ are worked out from the molar mass of the structure shown. Read-outs that look alike come from different tables or passages of the source. Marks after values point to notes of the source that are not given here.

Assays:
M. bovis BCG Pasteur = assay: microbe, parasite or virus in culture; type: cell-based; conditions: Mycobacterium tuberculosis variant bovis BCG, BCG
M. bovis BCG = type: cell-based; conditions: M. bovis BCG treated at 4 × MIC for 48 h (D-cycloserine 100 mg/L, 39 160 mg/L); 100 cells
M. tuberculosis H37Rv = assay: SPOTi growth inhibition assay, M. tuberculosis H37Rv; type: cell-based; conditions: Mycobacterium tuberculosis, H37RV, SPOTi, read-out: MIC M. tuberculosis H37Rv
[1] = target: MurE (Rv2158c) protein of M. tuberculosis H37Rv (Mycobacterium tuberculosis, UniProt P9WJL3); assay: Mtb-MurE HPLC inhibition assay; type: biochemical
[2] = system: murine macrophage cell line RAW264.7; parameters: method as in Gupta and Bhakta.[27]; conditions: ref Gupta and Bhakta.[27]; cited from earlier work
M. aurum = assay: SPOTi assay, M. aurum; type: cell-based, Mycobacterium aurum; conditions: Mycolicibacterium aurum
M. smegmatis mc^2155 = assay: SPOTi assay, M. smegmatis; type: cell-based, Mycobacterium smegmatis; conditions: Mycolicibacterium smegmatis, MC^2155
CYP 1A2 = target: T1, CYP 1A2 (Homo sapiens, UniProt P05177); assay: CYP450 inhibition assay, CYP 1A2; type: in vitro ADME; parameters: dose or concentration left out as unconfirmed; conditions: CYP baculosomes with recombinant human CYP1A2, probe fluorogenic substrate (not named); human recombinant enzymes; read-out: Mean % inhibtion CYP 1A2
T1 construct: purchased; host or cells: baculosomes (insect-cell microsomes; own knowledge)
T1 sequence (P05177 1-516): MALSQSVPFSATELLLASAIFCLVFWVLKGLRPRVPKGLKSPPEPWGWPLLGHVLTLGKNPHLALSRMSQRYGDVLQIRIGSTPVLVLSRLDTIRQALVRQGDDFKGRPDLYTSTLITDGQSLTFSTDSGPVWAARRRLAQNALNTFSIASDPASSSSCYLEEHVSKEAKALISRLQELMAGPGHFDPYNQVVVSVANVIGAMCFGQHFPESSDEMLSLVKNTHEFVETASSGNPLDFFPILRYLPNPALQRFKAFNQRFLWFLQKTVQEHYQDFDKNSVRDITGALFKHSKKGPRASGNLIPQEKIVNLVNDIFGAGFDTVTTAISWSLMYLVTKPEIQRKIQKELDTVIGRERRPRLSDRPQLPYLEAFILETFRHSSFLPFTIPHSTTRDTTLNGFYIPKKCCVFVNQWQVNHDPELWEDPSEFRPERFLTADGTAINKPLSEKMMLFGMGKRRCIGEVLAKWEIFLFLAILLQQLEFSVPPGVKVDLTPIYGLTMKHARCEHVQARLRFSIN
Protocol: (§1) The compounds originally dissolved in DMSO were added to PBS to give a resulting concentration of […]. CYP baculosomes containing cDNA for a single human P450 isozyme, the fluorogenic substrate and the NADPH were added to the test solution. The reaction was incubated at 37°C for at least 1 h. Fluorogenic substrates metabolized by CYP enzymes result in highly fluorescent products in aqueous solution. The inhibition of CYP prevents this metabolism, which corresponds to a decrease in the fluorescence signal. The fluorescence was measured on a plate reader.

CYP 2C9 = target: T2, CYP 2C9 (Homo sapiens, UniProt P11712); assay: CYP450 inhibition assay, CYP 2C9; type: in vitro ADME; parameters: dose or concentration left out as unconfirmed; conditions: CYP baculosomes with recombinant human CYP2C9, probe fluorogenic substrate (not named); human recombinant enzymes; read-out: Mean % inhibtion CYP 2C9
T2 construct: purchased; host or cells: baculosomes (insect-cell microsomes; own knowledge)
Protocol: as §1

CYP 2C19 = target: T3, CYP 2C19 (Homo sapiens, UniProt P33261); assay: CYP450 inhibition assay, CYP 2C19; type: in vitro ADME; parameters: dose or concentration left out as unconfirmed; conditions: CYP baculosomes with recombinant human CYP2C19, probe fluorogenic substrate (not named); human recombinant enzymes; read-out: Mean % inhibtion CYP 2C19
T3 construct: purchased; host or cells: baculosomes (insect-cell microsomes; own knowledge)
Protocol: as §1

CYP 2D6 = target: T4, CYP 2D6 (Homo sapiens, UniProt P10635); assay: CYP450 inhibition assay, CYP 2D6; type: in vitro ADME; parameters: dose or concentration left out as unconfirmed; conditions: CYP baculosomes with recombinant human CYP2D6, probe fluorogenic substrate (not named); human recombinant enzymes; read-out: Mean % inhibtion CYP 2D6
T4 construct: purchased; host or cells: baculosomes (insect-cell microsomes; own knowledge)
Protocol: as §1

CYP 3A4 = target: T5, CYP 3A4 (Homo sapiens, UniProt P08684); assay: CYP450 inhibition assay, CYP 3A4; type: in vitro ADME; parameters: dose or concentration left out as unconfirmed; conditions: CYP baculosomes with recombinant human CYP3A4, probe fluorogenic substrate (not named); human recombinant enzymes; read-out: Mean % inhibtion CYP 3A4
T5 construct: purchased; host or cells: baculosomes (insect-cell microsomes; own knowledge)
Protocol: as §1

[3] = 336 h, read-out: MIC M. bovis BCG, SPOTi, 2 weeks at 37°C
[4] = read-out: MIC M. bovis BCG, SPOTi, value in square brackets

Sequence of MurE (Rv2158c) protein of M. tuberculosis H37Rv (P9WJL3 whole entry, looked up): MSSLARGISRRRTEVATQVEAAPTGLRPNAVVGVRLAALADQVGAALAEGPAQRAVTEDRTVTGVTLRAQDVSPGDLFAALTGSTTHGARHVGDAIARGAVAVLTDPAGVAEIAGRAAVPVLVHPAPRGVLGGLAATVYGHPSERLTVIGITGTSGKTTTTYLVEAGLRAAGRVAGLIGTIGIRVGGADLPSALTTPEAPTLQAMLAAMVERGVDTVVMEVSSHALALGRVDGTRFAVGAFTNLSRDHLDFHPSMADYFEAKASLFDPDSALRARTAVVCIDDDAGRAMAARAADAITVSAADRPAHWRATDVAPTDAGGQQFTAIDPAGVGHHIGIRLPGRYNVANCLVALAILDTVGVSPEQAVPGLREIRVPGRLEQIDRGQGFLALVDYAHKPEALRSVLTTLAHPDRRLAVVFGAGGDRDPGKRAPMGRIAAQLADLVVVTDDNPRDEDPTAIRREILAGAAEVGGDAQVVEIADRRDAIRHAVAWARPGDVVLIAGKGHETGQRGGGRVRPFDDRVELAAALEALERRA
T3 sequence (P33261 whole entry): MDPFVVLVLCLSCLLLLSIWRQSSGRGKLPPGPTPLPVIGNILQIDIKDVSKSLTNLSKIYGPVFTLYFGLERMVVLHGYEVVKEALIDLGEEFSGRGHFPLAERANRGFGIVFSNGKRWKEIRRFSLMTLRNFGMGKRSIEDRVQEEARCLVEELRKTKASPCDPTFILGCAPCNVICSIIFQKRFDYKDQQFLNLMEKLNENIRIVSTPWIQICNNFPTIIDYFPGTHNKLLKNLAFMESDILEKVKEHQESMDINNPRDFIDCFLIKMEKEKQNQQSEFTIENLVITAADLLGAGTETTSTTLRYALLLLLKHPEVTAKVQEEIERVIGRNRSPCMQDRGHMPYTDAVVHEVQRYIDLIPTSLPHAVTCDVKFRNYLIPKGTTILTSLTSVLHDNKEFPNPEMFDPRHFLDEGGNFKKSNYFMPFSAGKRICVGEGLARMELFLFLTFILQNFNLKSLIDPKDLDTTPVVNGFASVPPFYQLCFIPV
T2 sequence (P11712 whole entry): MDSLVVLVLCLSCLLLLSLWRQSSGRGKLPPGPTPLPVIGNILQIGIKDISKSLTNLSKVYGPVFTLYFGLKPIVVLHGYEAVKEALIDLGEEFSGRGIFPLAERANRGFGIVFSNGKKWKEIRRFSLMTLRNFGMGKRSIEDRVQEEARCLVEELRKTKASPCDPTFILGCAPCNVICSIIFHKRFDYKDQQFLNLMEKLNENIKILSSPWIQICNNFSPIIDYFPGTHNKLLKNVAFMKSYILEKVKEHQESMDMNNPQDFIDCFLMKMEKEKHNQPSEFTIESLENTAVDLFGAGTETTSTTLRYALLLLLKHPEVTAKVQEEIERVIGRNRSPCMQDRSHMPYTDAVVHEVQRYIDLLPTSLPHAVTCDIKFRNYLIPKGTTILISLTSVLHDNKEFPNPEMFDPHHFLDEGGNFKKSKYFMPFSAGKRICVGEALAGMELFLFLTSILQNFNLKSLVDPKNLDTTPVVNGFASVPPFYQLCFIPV
T5 sequence (P08684 whole entry): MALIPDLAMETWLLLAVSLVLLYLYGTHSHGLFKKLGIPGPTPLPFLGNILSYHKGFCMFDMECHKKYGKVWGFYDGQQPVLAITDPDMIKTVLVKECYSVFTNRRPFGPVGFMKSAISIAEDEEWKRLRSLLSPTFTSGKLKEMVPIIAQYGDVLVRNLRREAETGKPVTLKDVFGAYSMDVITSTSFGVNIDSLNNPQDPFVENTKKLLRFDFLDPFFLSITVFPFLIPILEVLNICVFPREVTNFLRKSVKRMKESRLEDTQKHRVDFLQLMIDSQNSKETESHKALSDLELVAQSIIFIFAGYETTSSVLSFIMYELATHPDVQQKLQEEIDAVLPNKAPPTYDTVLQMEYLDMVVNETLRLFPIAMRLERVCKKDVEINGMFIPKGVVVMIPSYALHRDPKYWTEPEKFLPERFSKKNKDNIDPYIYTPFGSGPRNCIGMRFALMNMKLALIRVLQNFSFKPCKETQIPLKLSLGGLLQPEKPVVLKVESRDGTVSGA
T4 sequence (P10635 whole entry): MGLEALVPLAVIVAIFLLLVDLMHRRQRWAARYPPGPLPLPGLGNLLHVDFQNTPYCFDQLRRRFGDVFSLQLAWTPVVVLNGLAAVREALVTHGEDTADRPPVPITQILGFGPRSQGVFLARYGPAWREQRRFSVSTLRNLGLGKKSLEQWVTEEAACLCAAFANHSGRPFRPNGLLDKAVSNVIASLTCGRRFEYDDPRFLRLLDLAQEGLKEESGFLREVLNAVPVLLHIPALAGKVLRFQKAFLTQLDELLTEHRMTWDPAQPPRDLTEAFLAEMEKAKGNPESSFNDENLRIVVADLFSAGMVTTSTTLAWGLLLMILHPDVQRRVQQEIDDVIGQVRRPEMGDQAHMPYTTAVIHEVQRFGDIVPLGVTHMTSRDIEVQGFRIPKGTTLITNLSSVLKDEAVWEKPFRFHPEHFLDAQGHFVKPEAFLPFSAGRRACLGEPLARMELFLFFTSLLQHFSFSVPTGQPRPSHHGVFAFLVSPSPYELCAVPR

SMILES	MIC (M. bovis BCG Pasteur; [3])	cell length (M. bovis BCG)	MIC (M. bovis BCG Pasteur; [4])	MIC (M. tuberculosis H37Rv; 336 h, 2 weeks at 37°C)	MIC (M. tuberculosis H37Rv; value in square brackets)	IC50 ([1]; HPLC assay, 37°C 30 min)	Mtb-MurE inhibitory effect ([1]; negative control, any of the concentrations examined)	GIC50 RAW264.7 [2]	MIC (M. aurum)	MIC (M. smegmatis mc^2155)	inhibition (CYP 1A2)	inhibition (CYP 2C9)	inhibition (CYP 2C19)	inhibition (CYP 2D6)	inhibition (CYP 3A4)
N[C@@H]1CON=C1O [D-cycloserine, reference compound]	25 µg/mL	4.2 ± 1.0 μm													
NNC(=O)c1ccncc1 [Isoniazid, reference compound]	0.1 µg/mL		0.73 µM	0.1 µg/mL	0.73 µM	> 1000 µM	no inhibitory effect	3000^a mg/L							
CO[C@H]1/C=C/O[C@@]2(C)Oc3c(C)c(O)c4c(O)c(c(/C=N/N5CCN(C)CC5)c(O)c4c3C2=O)NC(=O)/C(C)=C\C=C\[C@H](C)[C@H](O)[C@@H](C)[C@@H](O)[C@@H](C)[C@H](OC(C)=O)[C@@H]1C [Rifampicin, reference compound]	0.05 µg/mL		0.061 µM	0.05 µg/mL	0.061 µM			700^a mg/L	0.1 µg/mL (≈ 0.122 µM)	0.1 µg/mL (≈ 0.122 µM)					
O=c1cc(-c2ccccc2)oc2c1ccc1ccccc12 [α-naphthoflavone, reference compound]											100%	101%	100%	99.1%	101%
